Experimental data taken from the supplement of paper PMC12613149.
Structures can show the parent of a compound that is named as a salt.

Columns and labels:
[1] = reversed-phase LC retention time (C18, 15 min MeOH gradient); higher = more hydrophobic / later elution
[2] = collision cross section (TIMS, N2 drift gas) of the primary ion; higher = larger gas-phase ion size
[3] = ionization mode: ESI+, ion species: [M+H]+
[4] = ionization mode: ESI-, ion species: [M-H]-
[5] = ionization mode: ESI+, ion species: [M]+

| Compound | reversed-phase LC retention time [1, 3] [min] | collision cross section [2, 3] [Å²] | reversed-phase LC retention time [1, 4] [min] | collision cross section [2, 4] [Å²] | reversed-phase LC retention time [1, 5] [min] | collision cross section [2, 5] [Å²] |
| --- | --- | --- | --- | --- | --- | --- |
| COc1cc(Cl)c(OC)cc1N [4-Chloro-2,5-dimethoxyaniline] | 10.3 | 143.89 |  |  |  |  |
| CN(C)Cc1cc(C(C)(C)C)c(O)c(C(C)(C)C)c1 [2,6-Di-tert-Butyl-4-(dimethylamino)methylphenol] | 12.7 | 176.35 | 17.1 | 173.06 |  |  |
| CC(Cc1ccc(C(C)(C)C)cc1)CN1CCCCC1 (centres undefined) [Fenpropidin] | 13.6 | 166.93 |  |  |  |  |
| O=c1cc(-c2ccccc2)oc2cc(O)cc(O)c12 [Chrysin] | 14.1 | 154.65 | 12.8 | 156.4 |  |  |
| Oc1ccc(C2(c3ccc(O)cc3)c3ccccc3-c3ccccc32)cc1 [Fluorene-9-bisphenol] |  |  | 15.3 | 194.22 |  |  |
| CCC(CC)Nc1c([N+](=O)[O-])cc(C)c(C)c1[N+](=O)[O-] [Pendimethalin] | 17.1 | 160.71 |  |  |  |  |
| CC(C)(C)CC(C)(C)c1cc(-n2nc3ccccc3n2)c(O)c(C(C)(C)c2ccccc2)c1 [UV-928] | 20.4 | 220.23 |  |  |  |  |
| CSC1=N[C@@](C)(c2ccccc2)C(=O)N1Nc1ccccc1 [Fenamidone] | 14.1 | 173.13 |  |  |  |  |
| O=C(O)c1cc(C(=O)O)cc([N+](=O)[O-])c1 [5-Nitroisophthalic acid] |  |  | 0.96 | 137.91 |  |  |
| C[Si](Cn1cncn1)(c1ccc(F)cc1)c1ccc(F)cc1 [Flusilazole] | 15.2 | 176.25 |  |  |  |  |
| c1ccc2[nH]nnc2c1 [Benzotriazole] | 7.82 | 119.49 |  |  |  |  |
| CCCCCCCCCCOS(=O)(=O)O [Decylsulfate] |  |  | 14.9 | 159.61 |  |  |
| CNC(=O)c1cc(Oc2ccc(NC(=O)Nc3ccc(Cl)c(C(F)(F)F)c3)cc2)ccn1 | 15.8 | 214.28 | 16.2 | 218.21 |  |  |
| COC(=O)N(C(=O)N1CO[C@@]2(C(=O)OC)Cc3cc(Cl)ccc3C2=N1)c1ccc(OC(F)(F)F)cc1 [Indoxacarb] | 16.2 | 206.73 |  |  |  |  |
| CC(C)N1C(=O)c2cc(O)ccc2NS1(=O)=O [6-Hydroxybentazone] |  |  | 5.24 | 149.95 |  |  |
| C[N+](C)(C)CC(O)CCl (centres undefined) [(3-Chloro-2-hydroxypropyl)trimethylammonium] |  |  |  |  | 1.03 | 127.94 |
| COP(=O)(OC)C(O)C(Cl)(Cl)Cl (centres undefined) [Trichlorfon] | 9.07 | 138.18 |  |  |  |  |

| Compound | reversed-phase LC retention time [1, 3] [min] | collision cross section [2, 3] [Å²] | reversed-phase LC retention time [1, 4] [min] | collision cross section [2, 4] [Å²] | reversed-phase LC retention time [1, 5] [min] | collision cross section [2, 5] [Å²] |
| --- | --- | --- | --- | --- | --- | --- |
| NCC1(CC(=O)O)CCCCC1 [Gabapentin] | 7.2 | 139.22 |  |  |  |  |
| CC(C)(C)c1cc(CCC(=O)NCCCCCCNC(=O)CCc2cc(C(C)(C)C)c(O)c(C(C)(C)C)c2)cc(C(C)(C)C)c1O | 17.8 | 263.68 | 18.3 | 254.68 |  |  |
| CN=C(NC#N)NCCSCc1nc[nH]c1C [Cimetidine] | 6.06 | 158.06 | 8.43 | 165.63 |  |  |
| Oc1ccc2c(c1)[nH]c1ccccc12 [2-Hydroxycarbazole] |  |  | 12.4 | 138.96 |  |  |
| Cc1ccc(N)cc1Cl [3-Chloro-4-methylaniline] | 12.2 | 148.73 |  |  |  |  |
| O=C(Nc1ccccc1)c1ccccc1SSc1ccccc1C(=O)Nc1ccccc1 [2,2'-Dithiobisbenzanilide] | 16.2 | 195.49 |  |  |  |  |
| CC(=O)c1cc(C(C)(C)C)c(O)c(C(C)(C)C)c1 [3,5-Di-tert-butyl-4'-hydroxyacetophenone] |  |  | 16.3 | 165.11 |  |  |
| CCCN(CCOc1c(Cl)cc(Cl)cc1Cl)C(=O)n1ccnc1 [Prochloraz] | 15.7 | 183.61 |  |  |  |  |
| COP(=S)(OC)Oc1c(Cl)cc(C)cc1Cl [Toclofos-methyl] | 15.8 | 151.78 |  |  |  |  |
| C[C@]12CCC(=O)C=C1CC[C@@H]1[C@@H]2[C@@H](O)C[C@]2(C)C(=O)CC[C@@H]12 [4-Androsten-11beta-ol-3,17-dione] | 12.8 | 174.44 |  |  |  |  |
| CN(C)CCC(c1ccc(Cl)cc1)c1ccccn1 (centres undefined) [Chlorpheniramine] | 10.8 | 164.13 |  |  |  |  |
| CNC(=O)CSP(=O)(OC)OC [Omethoate] | 6.04 | 135.65 |  |  |  |  |
| O=c1oc2cc(O)ccc2c2oc3cc(O)ccc3c12 [Coumestrol] | 12.5 | 156.86 | 11.7 | 156.09 |  |  |
| CCCCCCCCCCCC[N+](C)(C)Cc1ccccc1 [Benzyldimethyldodecylammonium] |  |  |  |  | 16 | 196.05 |
| CC(C)C1(C)N=C(c2ncccc2C(=O)O)NC1=O (centres undefined) [Imazapyr] | 8.78 | 156.96 |  |  |  |  |
| CCNc1nc(NC(C)C)nc(SC)n1 [Ametryne] | 12.8 | 155.28 |  |  |  |  |
| O=C(Nc1ccccc1)Nc1ccccc1 [1,3-Diphenylurea] | 12.4 | 148.26 |  |  |  |  |

Next, values leading:

| reversed-phase LC retention time [1, 3] [min] | collision cross section [2, 3] [Å²] | reversed-phase LC retention time [1, 4] [min] | collision cross section [2, 4] [Å²] | reversed-phase LC retention time [1, 5] [min] | collision cross section [2, 5] [Å²] | Compound |
| --- | --- | --- | --- | --- | --- | --- |
|  |  | 12.9 | 140.81 |  |  | CCCOC(=O)c1ccc(O)cc1 [Propylparaben] |
| 19.6 | 200.01 |  |  |  |  | CCCCCCCC/C=C\CCCCCCCCCCCC(N)=O [Erucamide] |
|  |  | 16.5 | 184.43 |  |  | CC(C)c1ccc2c(c1)CC[C@H]1[C@](C)(C(=O)O)CCC[C@]21C [Dehydroabietic acid] |
| 16.7 | 148.63 | 17.1 | 154.28 |  |  | Cc1ccc(O)c(-n2nc3ccccc3n2)c1 [Drometrizole] |
| 16.4 | 175.51 |  |  |  |  | CCCCCCCCCCCC(=O)NCCO [N-Lauroylethanolamine] |
| 9.83 | 163.5 |  |  |  |  | CC1CCN(CCCC(=O)c2ccc(F)cc2)CC1 [Melperon] |
|  |  | 17.3 | 179.88 |  |  | COC(=O)CCc1cc(C(C)(C)C)c(O)c(C(C)(C)C)c1 [Methyl 3-(3,5-di-tert-butyl-4-hydroxyphenyl)propionate] |
| 6.39 | 153.27 | 5.71 | 152.72 |  |  | Nc1ccc(S(=O)(=O)Nc2nccs2)cc1 [Sulfathiazole] |
| 15.1 | 187.34 | 15.6 | 188.11 |  |  | CC(=O)[C@@]1(O)CC[C@H]2[C@@H]3C[C@H](C)C4=CC(=O)CC[C@]4(C)[C@H]3CC[C@@]21C [Medroxyprogesterone] |
| 7.93 | 182.54 |  |  |  |  | CC1COc2c(N3CCN(C)CC3)c(F)cc3c(=O)c(C(=O)O)cn1c23 (centres undefined) [Ofloxacin] |
| 16.2 | 173.98 | 16.6 | 167.79 |  |  | O=C(Nc1ccc(Cl)cc1)Nc1ccc(Cl)c(Cl)c1 [Triclocarban] |
| 11.9 | 163.11 | 10.6 | 163.45 |  |  | O=C(CCc1ccc(O)cc1)c1c(O)cc(O)cc1O [Phloretin] |
| 17.5 | 216.71 | 16.6 | 224.72 |  |  | CC1(C)[C@@H](O)CC[C@]2(C)[C@H]3C(=O)C=C4[C@@H]5C[C@@](C)(C(=O)O)CC[C@]5(C)CC[C@@]4(C)[C@]3(C)CC[C@@H]12 [Enoxolone] |
|  |  | 12.4 | 151.91 |  |  | CCNc1nc(=O)nc(NC(C)(C)C)[nH]1 [Terbuthylazine-2-hydroxy] |
| 13 | 171.35 |  |  |  |  | CNCCC(Oc1cccc2ccccc12)c1cccs1 (centres undefined) [Duloxetine] |
| 12.8 | 223.95 | 14.2 | 224.37 |  |  | CC(C)(C(=O)O)c1ccc(C(O)CCCN2CCC(C(O)(c3ccccc3)c3ccccc3)CC2)cc1 (centres undefined) [Fexofenadine] |
| 14.7 | 156.8 | 8.22 | 153.38 |  |  | O=C(O)CCCCCCCCCCC(=O)O [Dodecanedioic acid] |
| 14.2 | 148.66 |  |  |  |  | CCOC(=O)c1ccc(N(C)C)cc1 [Ethyl 4-(dimethylamino)benzoate] |
| 9.38 | 166.92 | 9.54 | 158.78 |  |  | OC(Cn1cncn1)(Cn1cncn1)c1ccc(F)cc1F [Fluconazole] |
| 11.2 | 206.28 | 10 | 198.36 |  |  | CCCCc1ncc(/C=C(\Cc2cccs2)C(=O)O)n1Cc1ccc(C(=O)O)cc1 [Eprosartan] |
| 14.3 | 161.99 | 9.47 | 172.55 |  |  | NS(=O)(=O)c1cc(C(=O)O)c(NCc2ccco2)cc1Cl [Furosemide] |
| 16.6 | 178.97 |  |  |  |  | CCCCCCCCCCCC(=O)NCC(C)O (centres undefined) [Lauric isopropanolamide] |
|  |  | 17.9 | 161.38 |  |  | CC(C)CC(C)CC(C)c1ccc(O)cc1 (stereo not drawn) [Nonylphenol_isomers] |
| 16.5 | 203.87 |  |  |  |  | CCCCOC(=O)CC(O)(CC(=O)OCCCC)C(=O)OCCCC [Tri-n-butyl citrate] |
| 12.7 | 160 | 11.9 | 165.62 |  |  | CCc1cccc(C)c1N(C(=O)C(=O)O)C(C)COC (centres undefined) [Metolachlor OA] |
| 9.66 | 118.24 |  |  |  |  | c1ccc2ncccc2c1 [Quinoline] |
| 13.9 | 177.62 |  |  |  |  | C#C[C@]1(O)CC[C@H]2[C@@H]3CCC4=CC(=O)CC[C@@H]4[C@H]3CC[C@@]21C [Norethindrone] |
|  |  | 13.7 | 198.83 |  |  | CC1(C)O[C@@H]2C[C@H]3[C@@H]4C[C@H](F)C5=CC(=O)C=C[C@]5(C)[C@@]4(F)[C@@H](O)C[C@]3(C)[C@]2(C(=O)CO)O1 [Fluocinolone acetonide] |
| 15.3 | 182.58 | 13.8 | 188.5 |  |  | COc1ccc2c(c1)c(CC(=O)O)c(C)n2C(=O)c1ccc(Cl)cc1 [Indomethacin] |
